Experimental data published in patent US8138334B2, “Substituted oxa-diaza-spiro-[5.5]-undecanone derivatives and their use as neurokinin antagonists” (Janssen Pharmaceutica N.V., priority 2005, dated 2012).

Experiments:
NK1 = NK1 (Homo sapiens, UniProt P25103); experiment: Signal transduction (ST), intracellular Ca++ FLIPR, NK1; assay type: cell-based; details: antagonist, read-out: NK1 pIC50 (converted)
Description: This test evaluates in vitro functional NK1 antagonistic activity. For the measurements of intracellular Ca^++ concentrations the cells were grown on 96-well (black wall/transparent bottom) plates from Costar for 2 days until they reached confluence. The cells were loaded with 2 μM Fluo3 in DMEM containing 0.1% BSA and 2.5 mM probenecid for 1 h at 37° C. They were washed 3× with a Krebs buffer (140 mM NaCl, 1 mM MgCl2×6H2O, 5 mM KCl, 10 mM glucose, 5 mM HEPES; 1.25 mM CaCl2; pH 7.4) containing 2.5 mM probenecid and 0.1% BSA (Ca^++-buffer). The cells were preincubated with a concentration range of antagonists for 20 min at RT and Ca^++-signals after addition of the agonists were measured in a Fluorescence Image Plate Reader (FLIPR from Molecular Devices, Crawley, England). The peak of the Ca^++-transient was considered as the relevant signal and the mean values of corresponding wells were analysed as described below.
The sigmoidal dose response curves were analysed by computerised curve-fitting, using the GraphPad Program. The EC50-value of a compound is the effective dose showing 50% of maximal effect. For mean curves the response to the agonist with the highest potency was normalised to 100%. For antagonist responses the IC50-value was calculated using non-linear regression. […]

NK2 = target: T1, NK2 (Homo sapiens, UniProt P21452); experiment: Signal transduction (ST), intracellular Ca++ FLIPR, NK2; assay type: cell-based; details: antagonist, read-out: NK2 pIC50 (converted)
T1 sequence (P21452 1-398): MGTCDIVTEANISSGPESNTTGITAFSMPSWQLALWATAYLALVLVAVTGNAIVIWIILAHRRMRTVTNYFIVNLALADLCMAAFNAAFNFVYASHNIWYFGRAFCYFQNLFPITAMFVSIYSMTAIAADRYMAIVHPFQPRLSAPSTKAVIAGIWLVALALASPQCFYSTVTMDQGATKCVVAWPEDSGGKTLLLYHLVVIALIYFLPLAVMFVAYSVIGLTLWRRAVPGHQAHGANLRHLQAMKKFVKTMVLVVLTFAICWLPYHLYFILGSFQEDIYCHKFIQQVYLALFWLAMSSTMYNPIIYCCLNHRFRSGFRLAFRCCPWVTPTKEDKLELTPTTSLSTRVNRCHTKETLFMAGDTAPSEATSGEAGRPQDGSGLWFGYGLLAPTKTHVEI

NK3 = target: T2, NK3 (Homo sapiens, UniProt P29371); experiment: Signal transduction (ST), intracellular Ca++ FLIPR, NK3; assay type: cell-based; details: antagonist, read-out: NK3 pIC50 (converted)
T2 sequence (P29371 1-465): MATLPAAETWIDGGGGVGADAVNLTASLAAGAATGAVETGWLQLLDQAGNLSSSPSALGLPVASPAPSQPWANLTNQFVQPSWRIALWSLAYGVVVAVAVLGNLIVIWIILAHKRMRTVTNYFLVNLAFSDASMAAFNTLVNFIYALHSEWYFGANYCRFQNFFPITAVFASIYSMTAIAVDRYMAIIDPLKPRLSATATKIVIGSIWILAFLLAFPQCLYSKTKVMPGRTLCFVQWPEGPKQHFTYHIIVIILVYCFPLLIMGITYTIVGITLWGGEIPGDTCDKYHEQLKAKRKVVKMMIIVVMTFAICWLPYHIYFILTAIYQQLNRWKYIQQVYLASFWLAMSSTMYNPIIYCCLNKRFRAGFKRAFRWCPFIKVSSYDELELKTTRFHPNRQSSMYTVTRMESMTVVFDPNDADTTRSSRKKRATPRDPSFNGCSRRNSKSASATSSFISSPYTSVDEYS

Chain of NK1 (P25103 whole entry): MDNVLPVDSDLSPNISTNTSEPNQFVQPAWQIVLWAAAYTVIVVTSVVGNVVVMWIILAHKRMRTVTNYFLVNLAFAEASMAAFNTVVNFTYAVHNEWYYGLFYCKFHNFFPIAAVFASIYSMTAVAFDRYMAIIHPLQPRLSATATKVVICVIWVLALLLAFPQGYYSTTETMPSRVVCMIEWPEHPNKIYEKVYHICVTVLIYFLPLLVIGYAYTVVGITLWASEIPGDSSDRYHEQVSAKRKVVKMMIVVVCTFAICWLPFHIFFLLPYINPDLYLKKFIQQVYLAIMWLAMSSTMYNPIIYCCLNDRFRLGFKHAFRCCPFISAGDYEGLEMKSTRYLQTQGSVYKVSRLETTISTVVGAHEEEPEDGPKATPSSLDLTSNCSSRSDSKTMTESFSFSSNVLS

| Structure (SMILES) | IC50 (NK1) | IC50 (NK2) | IC50 (NK3) | melting point |
| --- | --- | --- | --- | --- |
| CC(C)(C)CN1CCC2(CCN(C3CCN(C(=O)c4cc(C(F)(F)F)cc(C(F)(F)F)c4)C(Cc4ccccc4)C3)CC2)OC1=O (single isomer, unassigned) [Compound 2.1] | 251 nM | > 10 µM |  |  |
| CC(C)(C)C(=O)N1CCC2(CC1)CCN(C1CCN(C(=O)c3cc(C(F)(F)F)cc(C(F)(F)F)c3)C(Cc3ccccc3)C1)C(=O)O2 (stereo not drawn) [Compound 1.3] | 10 nM | 5.01 µM | 79.4 nM |  |
| O=C(C1CC1)N1CCC2(CC1)CCN([C@H]1CCN(C(=O)c3cc(C(F)(F)F)cc(C(F)(F)F)c3)[C@H](Cc3ccccc3)C1)C(=O)O2 [Compound 1.4] | 12.6 nM | 1 µM | 126 nM |  |
| O=C(C1CCOC1)N1CCC2(CC1)CCN([C@H]1CCN(C(=O)c3cc(C(F)(F)F)cc(C(F)(F)F)c3)[C@H](Cc3ccccc3)C1)C(=O)O2 (stereo partly drawn) [Compound 1.5] | 12.6 nM | 7.94 µM | 251 nM |  |
| O=C(C1CCOC1)N1CCC2(CC1)CCN(C1CCN(C(=O)c3cc(C(F)(F)F)cc(C(F)(F)F)c3)C(Cc3ccccc3)C1)C(=O)O2 (stereo not drawn) [Compound 1.6] | 25.1 nM |  |  | 102 °C |
| O=C(c1ccoc1)N1CCC2(CC1)CCN(C1CCN(C(=O)c3cc(C(F)(F)F)cc(C(F)(F)F)c3)C(Cc3ccccc3)C1)C(=O)O2 (stereo not drawn) [Compound 1.7] | 15.8 nM | 7.94 µM | 126 nM |  |
| O=C(c1ccoc1)N1CCC2(CC1)CCN(C1CCN(C(=O)c3cc(C(F)(F)F)cc(C(F)(F)F)c3)C(Cc3ccccc3)C1)C(=O)O2 (stereo not drawn) [Compound 1.8] | 25.1 nM |  |  | 192 °C |
| Cc1nnsc1C(=O)N1CCC2(CC1)CCN(C1CCN(C(=O)c3cc(C(F)(F)F)cc(C(F)(F)F)c3)C(Cc3ccccc3)C1)C(=O)O2 (stereo not drawn) [Compound 1.10] | 12.6 nM | 6.31 µM | 316 nM |  |
| O=C(c1ccccc1)N1CCC2(CC1)CCN(C1CCN(C(=O)c3cc(C(F)(F)F)cc(C(F)(F)F)c3)C(Cc3ccccc3)C1)C(=O)O2 (stereo not drawn) [Compound 1.11] | 31.6 nM | > 10 µM | 794 nM |  |
| O=C(c1ccccc1)N1CCC2(CC1)CCN(C1CCN(C(=O)c3cc(C(F)(F)F)cc(C(F)(F)F)c3)C(Cc3ccccc3)C1)C(=O)O2 (stereo not drawn) [Compound 1.12] | 50.1 nM |  |  | 110 °C |
| O=C(c1cnccn1)N1CCC2(CC1)CCN(C1CCN(C(=O)c3cc(C(F)(F)F)cc(C(F)(F)F)c3)C(Cc3ccccc3)C1)C(=O)O2 (stereo not drawn) [Compound 1.13] | 50.1 nM | 7.94 µM | 1580 nM |  |

Second part, the compound after the results:

| IC50 (NK1) | IC50 (NK2) | IC50 (NK3) | melting point | Structure (SMILES) |
| --- | --- | --- | --- | --- |
| 63.1 nM | 2 µM | 3980 nM |  | CC(C)(C)CN1CCC2(CCN(C3CCN(C(=O)c4cc(C(F)(F)F)cc(C(F)(F)F)c4)C(Cc4ccccc4)C3)CC2)OC1=O (single isomer, unassigned) [Compound 2.2] |
| 398 nM | > 10 µM | 5010 nM |  | CCC(CC)CN1CCC2(CCN(C3CCN(C(=O)c4cc(C(F)(F)F)cc(C(F)(F)F)c4)C(Cc4ccccc4)C3)CC2)OC1=O (single isomer, unassigned) [Compound 2.3] |
| 79.4 nM | 5.01 µM | 7940 nM |  | CCC(CC)CN1CCC2(CCN(C3CCN(C(=O)c4cc(C(F)(F)F)cc(C(F)(F)F)c4)C(Cc4ccccc4)C3)CC2)OC1=O (single isomer, unassigned) [Compound 2.4] |
| 631 nM |  | 3160 nM |  | Cn1cccc1CN1CCC2(CCN(C3CCN(C(=O)c4cc(C(F)(F)F)cc(C(F)(F)F)c4)C(Cc4ccccc4)C3)CC2)OC1=O (single isomer, unassigned) [Compound 2.9] |
| 79.4 nM | 2 µM | 3980 nM |  | Cn1cccc1CN1CCC2(CCN(C3CCN(C(=O)c4cc(C(F)(F)F)cc(C(F)(F)F)c4)C(Cc4ccccc4)C3)CC2)OC1=O (single isomer, unassigned) [Compound 2.10] |
| 398 nM | > 10 µM | 1580 nM |  | O=C1OC2(CCN1Cc1cccnc1)CCN(C1CCN(C(=O)c3cc(C(F)(F)F)cc(C(F)(F)F)c3)C(Cc3ccccc3)C1)CC2 (single isomer, unassigned) [Compound 2.16] |
| 100 nM | 2.51 µM | 6310 nM |  | O=C1OC2(CCN1Cc1cccnc1)CCN(C1CCN(C(=O)c3cc(C(F)(F)F)cc(C(F)(F)F)c3)C(Cc3ccccc3)C1)CC2 (single isomer, unassigned) [Compound 2.17] |
| 200 nM | 5.01 µM | > 10000 nM |  | O=C1OC2(CCN1CC1CCCCC1)CCN(C1CCN(C(=O)c3cc(C(F)(F)F)cc(C(F)(F)F)c3)C(Cc3ccccc3)C1)CC2 (stereo not drawn) [Compound 2.5] |
| 200 nM | > 10 µM | 2510 nM |  | O=C1OC2(CCN1Cc1ccsc1)CCN(C1CCN(C(=O)c3cc(C(F)(F)F)cc(C(F)(F)F)c3)C(Cc3ccccc3)C1)CC2 (stereo not drawn) [Compound 2.6] |
| 158 nM | 3.98 µM |  |  | O=C1OC2(CCN1Cc1ccsc1)CCN(C1CCN(C(=O)c3cc(C(F)(F)F)cc(C(F)(F)F)c3)C(Cc3ccccc3)C1)CC2 (stereo not drawn) [Compound 2.7] |
| 251 nM | > 10 µM | 6310 nM |  | O=C1OC2(CCN1Cc1ccoc1)CCN(C1CCN(C(=O)c3cc(C(F)(F)F)cc(C(F)(F)F)c3)C(Cc3ccccc3)C1)CC2 (stereo not drawn) [Compound 2.8] |
| 398 nM | > 10 µM | 7940 nM |  | Cc1ccccc1CN1CCC2(CCN(C3CCN(C(=O)c4cc(C(F)(F)F)cc(C(F)(F)F)c4)C(Cc4ccccc4)C3)CC2)OC1=O (stereo not drawn) [Compound 2.11] |
| 251 nM | 3.98 µM | 5010 nM |  | Cc1ccccc1CN1CCC2(CCN(C3CCN(C(=O)c4cc(C(F)(F)F)cc(C(F)(F)F)c4)C(Cc4ccccc4)C3)CC2)OC1=O (stereo not drawn) [Compound 2.12] |
| 316 nM | > 10 µM | 2000 nM |  | O=C1OC2(CCN1Cc1ccc(O)cc1)CCN(C1CCN(C(=O)c3cc(C(F)(F)F)cc(C(F)(F)F)c3)C(Cc3ccccc3)C1)CC2 (stereo not drawn) [Compound 2.15] |
